# Laboratory results taken from ChEMBL document CHEMBL2417425, “Design and synthesis of positional isomers of 5 and 6-bromo-1-[(phenyl)sulfonyl]-2-[(4-nitrophenoxy)methyl]-1H-benzimidazoles as possible antimicrobial and antitubercular agents” (2013).
# Tests used:
# Format in all cases: functional
# [1] = system: Mycolicibacterium fortuitum; assay: Antimycobacterial activity against Mycobacterium fortuitum ATCC 19542 assessed as growth inhibition at 0.3125 to 5 ug/mL by resazurin assay
# [2] = system: Mycolicibacterium smegmatis; assay: Antimycobacterial activity against Mycobacterium smegmatis ATCC 19420 assessed as growth inhibition at 0.3125 to 5 ug/mL by resazurin assay
# [3] = system: Mycobacterium tuberculosis; assay: Antimycobacterial activity against Mycobacterium tuberculosis H37Rv assessed as growth inhibition at 0.3125 to 5 ug/mL by resazurin assay
# [4] = system: Mycolicibacterium fortuitum; assay: Antimycobacterial activity against Mycobacterium fortuitum ATCC 19542 assessed as growth inhibition at 1 to 100 ug/mL by resazurin assay
# [5] = system: Mycolicibacterium smegmatis; assay: Antimycobacterial activity against Mycobacterium smegmatis ATCC 19420 assessed as growth inhibition at 1 to 100 ug/mL by resazurin assay
# [6] = system: Mycobacterium tuberculosis; assay: Antimycobacterial activity against Mycobacterium tuberculosis H37Rv assessed as growth inhibition at 1 to 100 ug/mL by resazurin assay
# Klebsiella pneumoniae [7] = assay: Potency index, ratio of ciprofloxacin MIC to compound MIC for Klebsiella pneumoniae
# Staphylococcus aureus [8] = assay: Potency index, ratio of ciprofloxacin MIC to compound MIC for Staphylococcus aureus
# Rhizopus = assay: Antifungal activity against Rhizopus sp. assessed as growth inhibition by serial dilution method
# Aspergillus flavus = assay: Antifungal activity against Aspergillus flavus assessed as growth inhibition by serial dilution method
# Candida albicans = assay: Antifungal activity against Candida albicans assessed as growth inhibition by serial dilution method
# Klebsiella pneumoniae [9] = assay: Antibacterial activity against Klebsiella pneumoniae assessed as growth inhibition by serial dilution method
# Escherichia coli = assay: Antibacterial activity against Escherichia coli assessed as growth inhibition by serial dilution method
# Staphylococcus aureus [10] = assay: Antibacterial activity against Staphylococcus aureus assessed as growth inhibition by serial dilution method
smiles,measurement,setting,value
O=[N+]([O-])c1ccc(OCc2nc3cc(Br)ccc3n2S(=O)(=O)c2cc(F)ccc2F)cc1,MIC,[1],10 µg/mL
same,MIC,[2],10 µg/mL
same,MIC,[3],0.625 µg/mL
same,MIC,[4],10 µg/mL
same,MIC,[5],10 µg/mL
same,growth inhibition (GI),[6],95%
same,MIC,"[6]; Mycobacterium tuberculosis, H37Rv",1 µg/mL
same,PI,Klebsiella pneumoniae [7],2
same,PI,Staphylococcus aureus [8],1
same,MIC,Rhizopus,16 µg/mL
same,MIC,Aspergillus flavus,8 µg/mL
same,MIC,Candida albicans,16 µg/mL
same,MIC,Klebsiella pneumoniae [9],4 µg/mL
same,MIC,Escherichia coli,32 µg/mL
same,MIC,Staphylococcus aureus [10],4 µg/mL
